Test system: TSC2–/– iPSC-derived neurons
Assay: MEA weighted mean firing rate in TSC2–/– iPSC-derived neurons
Assay type: cell-based, human
From the text: TSC2^–/– iPSC-derived cortical neurons were differentiated in two to three replicate batches, defined as independent plating of starting material iPSCs and use of reagents to differentiate iPSCs into neurons. The NGN2-induced cortical neurons were differentiated following previously published methods ([Winden et al., 2019]; [Zhang et al., 2013]) that are also described here. To establish a line of iPSCs expressing the NGN2 vector, on differentiation day - 2, iPSCs were dissociated with Accutase (Innovative Cell Technologies #AT104) and plated as single cells at 90,000 cells/cm^2 in mTeSR-1 media supplemented with 10 μM ROCK inhibitor (Y-27631, Cayman Chemical #10005583), on Geltrex-coated 12-well plates. While iPSCs were routinely cultured with StemFlex (as noted above), the NGN2 differentiation was optimized with mTeSR-1 media, so the switch was made to this media prior to initiating differentiation. One day after re-plating as single cells, on differentiation day - 1, iPSCs were transduced with lentiviral vectors expressing NGN2 and rtTA and 8 μg/ml polybrene (Sigma-Aldrich #TR-1003-G). The lentiviral particles were produced and concentrated at the Viral Core at Boston Children’s Hospital and were added to the culture at an MOI of 5 for each vector. Both plasmids are available at Addgene with the following IDs: 52047 and 20342. […]

- IC50 (Homo sapiens, Neuron, day 23, after 2 weeks treatment until day 21, replicate batch #1): 0.015 nM
Compound: CO[C@H]1C[C@@H]2CC[C@@H](C)[C@@](O)(O2)C(=O)C(=O)N2CCCC[C@H]2C(=O)O[C@H]([C@H](C)C[C@@H]2CC[C@@H](O)[C@H](OC)C2)CC(=O)[C@H](C)/C=C(\C)[C@@H](O)[C@@H](OC)C(=O)[C@H](C)C[C@H](C)/C=C/C=C/C=C/1C [Rapamycin, rapamycin]
- Dose at which WMFR was lowered (during the 2 weeks treatment window, vs DMSO): > 0.1 nM

Source: paper PMC12337281, “mTORC1-selective inhibitors rescue cellular phenotypes in TSC iPSC-derived neurons” (Frontiers in Neuroscience, 2025)
